Experimental data reported in the NIST ThermoML archive (doi:10.1016/j.jct.2013.10.031).
± gives the expanded uncertainty stated by the source.

Assay: wn = mass fraction of the nth substance listed
Settings: Gas, Burnett expansion method

FCC(F)(F)F [1,1,1,2-tetrafluoroethane] + CCC
Settings	mass density [kg/m3]
312.17 K, 679.1 kPa, w2 = 0.45	19.022 ± 0.65
312.17 K, 873 kPa, w2 = 0.45	25.3381 ± 0.72
312.18 K, 403.4 kPa, w2 = 0.45	10.7201 ± 0.59
312.18 K, 524.7 kPa, w2 = 0.45	14.2797 ± 0.61
312.19 K, 309.2 kPa, w2 = 0.45	8.04778 ± 0.56
312.23 K, 1062.8 kPa, w2 = 0.5	30.8635 ± 0.77
312.24 K, 293.9 kPa, w2 = 0.5	7.35936 ± 0.53
312.24 K, 386.2 kPa, w2 = 0.5	9.80302 ± 0.55
312.24 K, 650.6 kPa, w2 = 0.5	17.3937 ± 0.63
312.24 K, 835.8 kPa, w2 = 0.5	23.1694 ± 0.68
312.24 K, 1330.8 kPa, w2 = 0.5	41.1106 ± 0.81
312.25 K, 502.5 kPa, w2 = 0.5	13.0579 ± 0.59
315.01 K, 615.4 kPa, w2 = 0.65	14.1721 ± 0.52
315.01 K, 795.5 kPa, w2 = 0.65	18.8451 ± 0.56
315.01 K, 1017.2 kPa, w2 = 0.65	25.0585 ± 0.63
315.01 K, 1280.7 kPa, w2 = 0.65	33.3212 ± 0.68
315.02 K, 274.4 kPa, w2 = 0.65	6.0676 ± 0.45
315.02 K, 360.8 kPa, w2 = 0.65	8.015 ± 0.47
315.02 K, 472.6 kPa, w2 = 0.65	10.6578 ± 0.49
315.06 K, 855 kPa, w2 = 0.55	22.0047 ± 0.62
315.06 K, 1090.2 kPa, w2 = 0.55	29.2605 ± 0.7
315.06 K, 1366.4 kPa, w2 = 0.55	38.9077 ± 0.77
315.07 K, 509.9 kPa, w2 = 0.55	12.4444 ± 0.54
315.07 K, 663.2 kPa, w2 = 0.55	16.5479 ± 0.57
315.08 K, 389.6 kPa, w2 = 0.55	9.3584 ± 0.51
315.09 K, 296.5 kPa, w2 = 0.55	7.0377 ± 0.5
315.09 K, 1068.9 kPa, w2 = 0.6	27.4868 ± 0.67
315.1 K, 289.6 kPa, w2 = 0.6	6.6116 ± 0.48
315.1 K, 498.6 kPa, w2 = 0.6	11.6903 ± 0.51
315.1 K, 648.9 kPa, w2 = 0.6	15.5452 ± 0.55
315.1 K, 837.4 kPa, w2 = 0.6	20.6708 ± 0.59
315.1 K, 1341.8 kPa, w2 = 0.6	36.5492 ± 0.73
315.11 K, 380.8 kPa, w2 = 0.6	8.7915 ± 0.49
315.98 K, 1580.4 kPa, w2 = 0.5	50.2225 ± 0.93
316.02 K, 947.3 kPa, w2 = 0.4	28.0242 ± 0.74
316.02 K, 1201.7 kPa, w2 = 0.4	37.3297 ± 0.85
316.03 K, 251.6 kPa, w2 = 0.4	6.68246 ± 0.56
316.03 K, 331.4 kPa, w2 = 0.4	8.9013 ± 0.57
316.03 K, 434.8 kPa, w2 = 0.4	11.857 ± 0.59
316.03 K, 568 kPa, w2 = 0.4	15.7941 ± 0.62
316.03 K, 737 kPa, w2 = 0.4	21.0384 ± 0.67
316.03 K, 1496.5 kPa, w2 = 0.4	49.7241 ± 0.93
316.07 K, 1279.9 kPa, w2 = 0.5	37.6931 ± 0.83
316.09 K, 1628 kPa, w2 = 0.45	55.7253 ± 1
316.11 K, 1015.3 kPa, w2 = 0.5	28.294 ± 0.71
316.11 K, 1322.4 kPa, w2 = 0.45	41.8324 ± 0.91
316.12 K, 496.6 kPa, w2 = 0.45	13.2868 ± 0.61
316.12 K, 641.4 kPa, w2 = 0.45	17.6986 ± 0.64
316.12 K, 825.1 kPa, w2 = 0.45	23.5754 ± 0.7
316.12 K, 1051.5 kPa, w2 = 0.45	31.4039 ± 0.78
316.13 K, 382.7 kPa, w2 = 0.45	9.97465 ± 0.58
316.13 K, 614 kPa, w2 = 0.5	15.945 ± 0.59
316.13 K, 793.6 kPa, w2 = 0.5	21.2396 ± 0.64
316.14 K, 359.6 kPa, w2 = 0.5	8.98623 ± 0.54
316.14 K, 471.1 kPa, w2 = 0.5	11.9702 ± 0.56
319.94 K, 1816.9 kPa, w2 = 0.4	64.6378 ± 1.1
319.97 K, 1488.2 kPa, w2 = 0.4	48.5219 ± 0.98
319.98 K, 935.7 kPa, w2 = 0.4	27.3455 ± 0.72
319.98 K, 1189.8 kPa, w2 = 0.4	36.4256 ± 0.82
319.99 K, 326.1 kPa, w2 = 0.4	8.68561 ± 0.57
319.99 K, 428.1 kPa, w2 = 0.4	11.5696 ± 0.58
319.99 K, 559.5 kPa, w2 = 0.4	15.4113 ± 0.61
319.99 K, 726.9 kPa, w2 = 0.4	20.5286 ± 0.66
320 K, 1619.8 kPa, w2 = 0.5	49.4434 ± 0.88
320.03 K, 1304.5 kPa, w2 = 0.5	37.1152 ± 0.79
320.05 K, 1030.2 kPa, w2 = 0.5	27.8617 ± 0.68
320.07 K, 802.1 kPa, w2 = 0.5	20.9155 ± 0.61
320.08 K, 360.7 kPa, w2 = 0.5	8.84905 ± 0.52
320.08 K, 473.5 kPa, w2 = 0.5	11.7874 ± 0.54
320.08 K, 618.5 kPa, w2 = 0.5	15.7015 ± 0.57
320.08 K, 1320 kPa, w2 = 0.45	39.4284 ± 0.84
320.08 K, 1636.4 kPa, w2 = 0.45	52.5203 ± 0.93
320.09 K, 814.3 kPa, w2 = 0.45	22.2206 ± 0.65
320.09 K, 1044.1 kPa, w2 = 0.45	29.5994 ± 0.72
320.1 K, 367.3 kPa, w2 = 0.45	9.40149 ± 0.55
320.1 K, 481.7 kPa, w2 = 0.45	12.5232 ± 0.57
320.1 K, 628.6 kPa, w2 = 0.45	16.6813 ± 0.6
